As usually defined, the pIC50 is −log10 of the IC50, conventionally taken in molar units.

Holding throughout (assay): Ras-Raf disruption / FRET / MOA assay (BRAF RBD)
Type in all cases: biochemical

The target of assay [1] is KRAS G12D (Homo sapiens, UniProt P01116+P62937, G12D). As to conditions: with Cyclophilin A. In a few lines:
(§1)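 TR-FRET in 25 mM HEPES pH 7.3, 100 mM NaCl, 5 mM MgCl2, 0.1% BSA, 0.002% Tween20 with 25 μM Cyclophilin A, 12.5 nM His6-Ras-GMPPNP, 50 nM GST-BRAF RBD; compound 10-point 3-fold series from 30 μM. After 3 h at 25 °C, Eu anti-His/APC anti-GST added for 1.5 h; IC50 from ratio decrease versus DMSO.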

Assay [2] has as its target KRAS G12S (Homo sapiens, UniProt P01116+P62937, G12S). The settings on record: with Cyclophilin A. Put shortly:
as §1

The target of assay [3] is KRAS G12V (Homo sapiens, UniProt P01116+P62937, G12V). The settings on record: with Cyclophilin A. In a few lines:
as §1

For assay [4], the target named is KRAS G13C (Homo sapiens, UniProt P01116+P62937, G13C). The settings on record: with Cyclophilin A. Put shortly: as §1
Assay [5] has as its target KRAS G13D (Homo sapiens, UniProt P01116+P62937, G13D). As to conditions: with Cyclophilin A. In a few lines:
as §1

The target in assay [6] is KRAS Q61H (Homo sapiens, UniProt P01116+P62937, Q61H). Put shortly: as §1
Assay [7] concerns the target KRAS WT (Homo sapiens, UniProt P01116+P62937). The settings on record: with Cyclophilin A. Put shortly: as §1
Assay [8] has as its target NRAS G12C (Homo sapiens, UniProt P01111+P62937, G12C). In a few lines:
as §1

The target in assay [9] is NRAS Q61K (Homo sapiens, UniProt P01111+P62937, Q61K). In a few lines: as §1
Assay [10] has as its target NRAS Q61R (Homo sapiens, UniProt P01111+P62937, Q61R). Put shortly: as §1
Assay [11] deals with NRAS WT (Homo sapiens, UniProt P01111+P62937). In a few lines:
as §1

Assay [12] addresses KRAS G12C (Homo sapiens, UniProt P01116+P62937, G12C). As to conditions: with Cyclophilin A. Put shortly: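 His6-K-Ras G12C-GMPPNP (12.5 nM), GST-BRAF RBD (50 nM) and tagless Cyclophilin A (25 μM) incubated 3 h at 25 °C with compound (10-point 3-fold series from 30 μM), pH 7.3 HEPES buffer. Anti-His Eu/anti-GST APC added for 1.5 h; decreased TR-FRET ratio vs DMSO gives IC50.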

[13] abbreviates: KRAS G12D FRET data IC50, Ras-Raf disruption.
The mark [14] stands for this setting: KRAS G12S FRET data IC50, Ras-Raf disruption.
[15] abbreviates: KRAS G12V FRET data IC50, Ras-Raf disruption.
Setting [16] is: KRAS G13C FRET data IC50, Ras-Raf disruption.
The mark [17] stands for this setting: KRAS G13D FRET data IC50, Ras-Raf disruption.
The mark [18] stands for this setting: KRAS WT FRET data IC50, Ras-Raf disruption.
The mark [19] stands for this setting: NRAS G12C FRET data IC50, NRAS G12C.
Where [20] appears, read: KRAS G12C FRET data IC50, Ras-Raf disruption.
Setting [21] is: Ras-Raf disruption, read-out: KRAS G12D FRET data IC50.
Setting [22] is: Ras-Raf disruption, read-out: KRAS G12S FRET data IC50.
[23] abbreviates: Ras-Raf disruption, read-out: KRAS G12V FRET data IC50.
The mark [24] stands for this setting: Ras-Raf disruption, read-out: KRAS G13C FRET data IC50.
[25] abbreviates: Ras-Raf disruption, read-out: KRAS G13D FRET data IC50.
[26] abbreviates: KRAS Q61H, read-out: KRAS Q61H FRET data IC50.
Where [27] appears, read: Ras-Raf disruption, read-out: KRAS WT FRET data IC50.
The mark [28] stands for this setting: NRAS G12C, read-out: NRAS G12C FRET data IC50.
The mark [29] stands for this setting: NRAS Q61K, read-out: NRAS Q61K FRET data IC50.
The mark [30] stands for this setting: NRAS Q61R, read-out: NRAS Q61R FRET data IC50.
Setting [31] is: NRAS WT, read-out: NRAS WT FRET data IC50.
Setting [32] is: Ras-Raf disruption, read-out: KRAS G12C FRET data IC50.

The structures appear in SMILES notation. pIC50: −log10 of the molar value. Where two headings read alike, the source gives them in different places. Where only a bound is given, the exact number is not on record here.

Sequence of NRAS G12C (P01111 whole entry G12C): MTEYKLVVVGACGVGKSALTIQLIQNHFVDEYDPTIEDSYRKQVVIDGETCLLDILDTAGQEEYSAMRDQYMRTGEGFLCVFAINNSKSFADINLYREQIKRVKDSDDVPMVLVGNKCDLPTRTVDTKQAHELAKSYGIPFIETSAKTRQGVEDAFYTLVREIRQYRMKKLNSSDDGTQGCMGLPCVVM
Sequence of NRAS G12C (P62937 whole entry): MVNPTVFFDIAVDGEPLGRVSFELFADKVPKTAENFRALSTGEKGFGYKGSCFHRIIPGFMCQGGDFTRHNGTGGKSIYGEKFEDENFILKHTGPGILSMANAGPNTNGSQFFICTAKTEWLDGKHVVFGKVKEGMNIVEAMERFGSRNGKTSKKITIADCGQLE
Sequence of NRAS Q61R (P01111 whole entry Q61R): as the sequence (P01111 whole entry G12C) above, with C12G, Q61R counted along it
Sequence of NRAS Q61R (P62937 whole entry): as the sequence (P62937 whole entry) above
Sequence of KRAS G12D (P01116 1-169 isoform P01116-2 G12D limits assumed): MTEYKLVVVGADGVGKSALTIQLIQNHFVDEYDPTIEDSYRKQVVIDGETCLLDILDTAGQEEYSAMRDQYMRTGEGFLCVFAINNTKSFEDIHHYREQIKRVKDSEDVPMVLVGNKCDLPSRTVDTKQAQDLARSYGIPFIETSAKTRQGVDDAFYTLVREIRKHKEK
Sequence of KRAS G12D (P62937 whole entry): as the sequence (P62937 whole entry) above
Sequence of KRAS G13C (P01116 1-169 isoform P01116-2 G13C limits assumed): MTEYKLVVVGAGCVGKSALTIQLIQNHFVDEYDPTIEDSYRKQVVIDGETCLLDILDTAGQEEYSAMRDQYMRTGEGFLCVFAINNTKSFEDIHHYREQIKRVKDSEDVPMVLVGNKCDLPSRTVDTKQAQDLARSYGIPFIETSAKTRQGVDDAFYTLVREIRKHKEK
Sequence of KRAS G13C (P62937 whole entry): as the sequence (P62937 whole entry) above
Sequence of KRAS G13D (P01116 1-169 isoform P01116-2 G13D limits assumed): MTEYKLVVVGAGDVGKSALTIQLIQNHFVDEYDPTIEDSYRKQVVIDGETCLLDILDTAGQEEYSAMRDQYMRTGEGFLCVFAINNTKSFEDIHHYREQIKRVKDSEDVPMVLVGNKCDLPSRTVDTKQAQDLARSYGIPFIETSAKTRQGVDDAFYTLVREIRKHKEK
Sequence of KRAS G13D (P62937 whole entry): as the sequence (P62937 whole entry) above
Sequence of NRAS WT (P01111 whole entry): as the sequence (P01111 whole entry G12C) above, with C12G counted along it
Sequence of NRAS WT (P62937 whole entry): as the sequence (P62937 whole entry) above
Sequence of KRAS G12C (P01116 1-169 isoform P01116-2 G12C limits assumed): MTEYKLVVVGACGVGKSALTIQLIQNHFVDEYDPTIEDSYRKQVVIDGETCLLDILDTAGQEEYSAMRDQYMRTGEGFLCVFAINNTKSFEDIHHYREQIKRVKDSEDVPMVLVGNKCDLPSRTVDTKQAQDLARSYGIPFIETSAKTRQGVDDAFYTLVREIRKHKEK
Sequence of KRAS G12C (P62937 whole entry): as the sequence (P62937 whole entry) above
Sequence of KRAS Q61H (P01116 1-169 isoform P01116-2 Q61H limits assumed): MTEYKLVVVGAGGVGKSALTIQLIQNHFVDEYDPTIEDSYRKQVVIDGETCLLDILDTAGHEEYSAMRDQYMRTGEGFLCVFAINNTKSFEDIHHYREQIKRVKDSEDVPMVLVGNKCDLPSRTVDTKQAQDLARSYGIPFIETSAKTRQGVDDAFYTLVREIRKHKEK
Sequence of KRAS Q61H (P62937 whole entry): as the sequence (P62937 whole entry) above
Sequence of KRAS G12V (P01116 1-169 isoform P01116-2 G12V limits assumed): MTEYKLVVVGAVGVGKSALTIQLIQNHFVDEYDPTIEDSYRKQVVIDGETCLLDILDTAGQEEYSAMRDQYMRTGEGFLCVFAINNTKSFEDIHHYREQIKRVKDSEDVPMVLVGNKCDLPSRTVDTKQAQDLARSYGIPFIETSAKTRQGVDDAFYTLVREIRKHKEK
Sequence of KRAS G12V (P62937 whole entry): as the sequence (P62937 whole entry) above
Sequence of KRAS G12S (P01116 1-169 isoform P01116-2 G12S limits assumed): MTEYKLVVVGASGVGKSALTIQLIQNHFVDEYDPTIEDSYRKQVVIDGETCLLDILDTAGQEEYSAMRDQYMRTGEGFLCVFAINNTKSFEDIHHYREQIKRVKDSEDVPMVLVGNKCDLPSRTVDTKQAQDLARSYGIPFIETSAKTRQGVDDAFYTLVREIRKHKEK
Sequence of KRAS G12S (P62937 whole entry): as the sequence (P62937 whole entry) above
Sequence of KRAS WT (P01116 1-169 isoform P01116-2 limits assumed): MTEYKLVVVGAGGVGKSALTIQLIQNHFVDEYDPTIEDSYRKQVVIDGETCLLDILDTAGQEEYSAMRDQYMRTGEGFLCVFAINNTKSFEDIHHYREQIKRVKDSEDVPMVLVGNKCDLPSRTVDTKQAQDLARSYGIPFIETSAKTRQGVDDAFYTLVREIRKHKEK
Sequence of KRAS WT (P62937 whole entry): as the sequence (P62937 whole entry) above
Sequence of NRAS Q61K (P01111 whole entry Q61K): as the sequence (P01111 whole entry G12C) above, with C12G, Q61K counted along it
Sequence of NRAS Q61K (P62937 whole entry): as the sequence (P62937 whole entry) above

As to `CCn1c(-c2cccnc2[C@H](C)OC)c2c3cc(ccc31)-c1cc(O)cc(c1)C[C@H](NC(=O)[C@H](C1CCCC1)N(C)C(=O)CN(C)C(=O)[C@@H]1N[C@@H]1C1(C#N)CC1)C(=O)N1CCC[C@H](N1)C(=O)OCC(C)(C)C2` (single isomer, unassigned) [Example 308], the negative-log IC50 (pIC50) in assay [1] (setting [13]) is 6.00 to 7.00; in assay [2] (setting [14]) it was 7.00 to 8.00; in assay [3] (setting [15]) it was 6.00 to 7.00; in [4] (setting [16]), 7.00 to 8.00; in assay [5] (setting [17]), 6.00 to 7.00; in assay [6] it was 7.00 to 8.00. The negative-log IC50 (pIC50) is 7.00 to 8.00 in assay [7] (setting [18]); 7.00 to 8.00 in assay [8] (setting [19]); 6.00 to 7.00 in [9]; 6.00 to 7.00 in [10]; 7.00 to 8.00 in assay [11]; 7.00 to 8.00 in assay [12] (setting [20]).

Turning to `CCn1c(-c2cccnc2[C@H](C)OC)c2c3cc(ccc31)-c1cc(O)cc(c1)C[C@H](NC(=O)[C@H](C1CCCC1)N(C)C(=O)CN(C)C(=O)[C@H]1N[C@H]1C1(OC)CC1)C(=O)N1CCC[C@H](N1)C(=O)OCC(C)(C)C2` (single isomer, unassigned) [Example 322], the pIC50 in assay [1] (setting [13]) is 6.00 to 7.00; in assay [2] (setting [14]) it was 7.00 to 8.00; in assay [3] (setting [15]), 7.00 to 8.00; in [4] (setting [16]) it was 7.00 to 8.00; in assay [5] (setting [17]) it was 6.00 to 7.00; in assay [6], 7.00 to 8.00. In addition, the negative-log IC50 (pIC50) in assay [7] (setting [18]) is 7.00 to 8.00; in assay [8] (setting [19]) it was 7.00 to 8.00; in [9], 6.00 to 7.00; in assay [10] it was 6.00 to 7.00; in assay [11] it was 7.00 to 8.00; in assay [12] (setting [20]) it was 7.00 to 8.00.

`CCn1c(-c2cccnc2[C@H](C)OC)c2c3cc(ccc31)-c1cc(O)cc(c1)C[C@H](NC(=O)[C@H](C1CCCC1)N(C)C(=O)CN(C)C(=O)[C@@H]1N[C@@H]1C1(OC)CC1)C(=O)N1CCC[C@H](N1)C(=O)OCC(C)(C)C2` (single isomer, unassigned) [Example 323]: the negative-log IC50 (pIC50) in [1] (setting [13]) is 6.00 to 7.00; in assay [2] (setting [14]) it was 7.00 to 8.00; in assay [3] (setting [15]), 7.00 to 8.00; in assay [4] (setting [16]), 7.00 to 8.00; in assay [5] (setting [17]), 6.00 to 7.00; in assay [6], 7.00 to 8.00. For the same compound, the pIC50 in [7] (setting [18]) is 7.00 to 8.00; in assay [8] (setting [19]) it was 7.00 to 8.00; in assay [9] it was 6.00 to 7.00; in [10], 6.00 to 7.00; in assay [11], 7.00 to 8.00; in assay [12] (setting [20]), 7.00 to 8.00.

For the compound `CCn1c(-c2cccnc2[C@H](C)OC)c2c3cc(ccc31)-c1cc(O)cc(c1)C[C@H](NC(=O)[C@H](C(C)C)N(C)C(=O)C13CC(CN1C(=O)[C@@H]1CN1)C3)C(=O)N1CCC[C@H](N1)C(=O)OCC(C)(C)C2` [Example 163], the pIC50 was 6.00 to 7.00 in assay [1] (setting [13]); 6.00 to 7.00 in [2] (setting [14]); 6.00 to 7.00 in assay [3] (setting [15]); 6.00 to 7.00 in assay [4] (setting [16]); 6.00 to 7.00 in [5] (setting [17]); 7.00 to 8.00 in assay [6]. For the same compound, the negative logarithm of the IC50 (pIC50) in [7] (setting [18]), in [8] (setting [19]), in assay [9], in assay [10], in [11] and in assay [12] (setting [20]) was 6.00 to 7.00 throughout.

Take `CCn1c(-c2cccnc2[C@H](C)OC)c2c3cc(ccc31)-c1cc(O)cc(c1)C[C@H](NC(=O)[C@H](C(C)C)N(C)C(=O)C13CC(CN1C(=O)[C@H]1CN1)C3)C(=O)N1CCC[C@H](N1)C(=O)OCC(C)(C)C2` [Example 164]: the negative logarithm of the IC50 (pIC50) in assay [1] (setting [13]) was 6.00 to 7.00; in [2] (setting [14]), 6.00 to 7.00; in assay [3] (setting [15]), 6.00 to 7.00; in assay [4] (setting [16]) it was 6.00 to 7.00; in assay [5] (setting [17]), 6.00 to 7.00; in assay [6], 7.00 to 8.00. Also, the negative logarithm of the IC50 (pIC50) is 6.00 to 7.00 in [7] (setting [18]); 6.00 to 7.00 in [8] (setting [19]); 5.00 to 6.00 in assay [9]; 5.00 to 6.00 in [10]; 6.00 to 7.00 in assay [11]; 6.00 to 7.00 in assay [12] (setting [20]).

Consider `CCn1c(-c2cccnc2[C@H](C)OC)c2c3cc(ccc31)-c1cc(O)cc(c1)C[C@H](NC(=O)[C@H](C(C)C)N(C)C(=O)[C@H]1CCCN(C(=O)[C@H]3CN3)C1)C(=O)N1CCC[C@H](N1)C(=O)OCC(C)(C)C2` [Example 165], for which the negative logarithm of the IC50 (pIC50) in assay [1] (setting [21]) was 6.00 to 7.00; in [2] (setting [22]), 6.00 to 7.00; in [3] (setting [23]), 7.00 to 8.00; in assay [4] (setting [24]), 6.00 to 7.00; in assay [5] (setting [25]) it was 6.00 to 7.00; in assay [6] (setting [26]), 6.00 to 7.00. In addition, the negative logarithm of the IC50 (pIC50) in [7] (setting [27]) is 6.00 to 7.00; in assay [8] (setting [28]), greater than 8.00; in assay [9] (setting [29]) it was 5.00 to 6.00; in [10] (setting [30]) it was 5.00 to 6.00; in assay [11] (setting [31]), 6.00 to 7.00; in assay [12] (setting [32]), greater than 8.00.

As to `CCn1c(-c2cccnc2[C@H](C)OC)c2c3cc(ccc31)-c1cc(O)cc(c1)C[C@H](NC(=O)[C@H](C(C)C)N(C)C(=O)[C@H]1C[C@H](NC(=O)[C@@H]3CN3)C1)C(=O)N1CCC[C@H](N1)C(=O)OCC(C)(C)C2` [Example 167], the pIC50 in assay [1] (setting [21]), in assay [2] (setting [22]), in assay [3] (setting [23]), in assay [4] (setting [24]), in assay [5] (setting [25]) and in [6] (setting [26]) was 7.00 to 8.00 each time. Further, the negative logarithm of the IC50 (pIC50) is 7.00 to 8.00 in assay [7] (setting [27]); greater than 8.00 in [8] (setting [28]); 7.00 to 8.00 in [9] (setting [29]); 6.00 to 7.00 in assay [10] (setting [30]); 7.00 to 8.00 in [11] (setting [31]); greater than 8.00 in [12] (setting [32]).

On to `CCn1c(-c2cccnc2[C@H](C)OC)c2c3cc(ccc31)-c1cc(O)cc(c1)C[C@H](NC(=O)[C@H](C1CCCC1)N(C)C(=O)CN(C)C(=O)[C@@H]1N[C@@H]1C1CC1)C(=O)N1CCC[C@H](N1)C(=O)OCC(C)(C)C2` [Example 170], for which the negative-log IC50 (pIC50) in assay [1] (setting [13]), in [2] (setting [14]), in assay [3] (setting [15]), in [4] (setting [16]), in assay [5] (setting [17]) and in assay [6] was 7.00 to 8.00 throughout. In addition, the pIC50 in assay [7] (setting [18]), in assay [8] (setting [19]), in assay [9], in [10], in assay [11] and in assay [12] (setting [20]) was 7.00 to 8.00 throughout.

On to `CCn1c(-c2cccnc2[C@H](C)OC)c2c3cc(ccc31)-c1cc(O)cc(c1)C[C@H](NC(=O)[C@H](C(C)C)N(C)C(=O)C13CCC(CC1)N3C(=O)[C@H]1CN1)C(=O)N1CCC[C@H](N1)C(=O)OCC(C)(C)C2` [Example 202], for which the negative logarithm of the IC50 (pIC50) is 6.00 to 7.00 in assay [1] (setting [13]); 6.00 to 7.00 in assay [2] (setting [14]); 6.00 to 7.00 in assay [3] (setting [15]); 6.00 to 7.00 in assay [4] (setting [16]); 6.00 to 7.00 in assay [5] (setting [17]); 7.00 to 8.00 in [6]. Moreover, the pIC50 in [7] (setting [18]) was 6.00 to 7.00; in [8] (setting [19]), 7.00 to 8.00; in assay [9], 6.00 to 7.00; in assay [10] it was 6.00 to 7.00; in [11], 6.00 to 7.00; in assay [12] (setting [20]), 7.00 to 8.00.
